Key:
[1] = tested on: PEO1 cells; experiment: Cell viability and synergy with cisplatin; type: cell-based; conditions: at 1 μM and 10 μM, 72 h
[2] = tested on: OVCAR5 cells; experiment: Cell viability and synergy with cisplatin; type: cell-based; conditions: at 1 μM and 10 μM, 72 h

Compound	Cytotoxicity of compound alone, PEO1 [1]	Cytotoxicity of compound alone, OVCAR5 [2]
O=c1c2cnn(C3COC3)c2nc(SCc2cccc(F)c2)n1-c1ccccc1 [Compound 12g, 6-((3-Fluorobenzyl)thio)-1-(oxetan-3-yl)-5-phenyl-1H-pyrazolo[3,4-d]pyrimidin-4(5H)-one]	did not show cytotoxicity	did not show cytotoxicity
O=c1c2cn(C3COC3)nc2nc(SCc2cccc(F)c2)n1-c1ccccc1 [Compound 13g, 6-((3-Fluorobenzyl)thio)-2-(oxetan-3-yl)-5-phenyl-2H-pyrazolo[3,4-d]pyrimidin-4(5H)-one]	did not show cytotoxicity	did not show cytotoxicity

Source: paper PMC6477540 (Journal of medicinal chemistry, 2018)
